Laboratory results taken from PubChem BioAssay (NCI).
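Step 1: Grow cells in 96-well plates. Step 2: Expose to compound for 48 hours at 5 concentrations. Step 3: Interpolate endpoints linearly; if unreached, use highest concentration. TGI: total growth inhibition.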

Assays:
Test in all cases: NCI-60 cell line screen, 48 h
[1] = test system: U251 CNS
[2] = test system: SF-539 CNS
[3] = test system: HCT-15 colon
[4] = test system: K-562 leukemia
[5] = test system: NCI-H522 lung
[6] = test system: SNB-19 CNS
[7] = test system: T-47D breast
[8] = test system: SN12C renal
[9] = test system: MDA-MB-435
[10] = test system: ACHN renal
[11] = test system: COLO 205 colon
[12] = test system: SW-620 colon
[13] = test system: HCC-2998 colon
[14] = test system: HT29 colon
[15] = test system: MOLT-4 leukemia
[16] = test system: SF-268 CNS
[17] = test system: OVCAR-5 ovarian
[18] = test system: HCT-116 colon
[19] = test system: DU-145 prostate
[20] = test system: PC-3 prostate
[21] = test system: LOX IMVI melanoma
[22] = test system: 786-0 renal
[23] = test system: MDA-N
[24] = test system: A549 NSCLC
[25] = test system: SNB-75 CNS
[26] = test system: RXF 393 renal
[27] = test system: EKVX NSCLC
[28] = test system: SF-295 CNS
[29] = test system: HS 578T breast
[30] = test system: SK-OV-3 ovarian
[31] = test system: UO-31 renal
[32] = test system: UACC-62 melanoma
[33] = test system: CCRF-CEM leukemia
[34] = test system: HL-60(TB) leukemia
[35] = test system: A498 renal
[36] = test system: BT-549 breast
[37] = test system: OVCAR-4 ovarian
[38] = test system: KM12 colon
[39] = test system: SK-MEL-5 melanoma
[40] = test system: MCF7 breast
[41] = test system: NCI/ADR-RES ovarian
[42] = test system: M14 melanoma
[43] = test system: SK-MEL-2 melanoma
[44] = test system: NCI-H226 lung
[45] = test system: MDA-MB-231 breast
[46] = test system: UACC-257 melanoma
[47] = test system: SR leukemia
[48] = test system: NCI-H460 lung
[49] = test system: CAKI-1 renal
[50] = test system: TK-10 renal
[51] = test system: OVCAR-3 ovarian
[52] = test system: SK-MEL-28 melanoma
[53] = test system: OVCAR-8 ovarian
[54] = test system: NCI-H23 lung
[55] = test system: IGROV1 ovarian
[56] = test system: RPMI-8226 leukemia
[57] = test system: HOP-62 NSCLC
[58] = test system: MALME-3M melanoma

SMILES: CC(C)c1cc(Cl)nc(Cl)n1
- TGI [1]: > 100 µM
- TGI [2]: > 100 µM
- TGI [3]: > 100 µM
- TGI [4]: > 100 µM
- TGI [5]: > 100 µM
- TGI [6]: > 100 µM
- TGI [7]: > 100 µM
- TGI [8]: > 100 µM
- TGI [9]: > 100 µM
- TGI [10]: > 100 µM
- TGI [11]: > 100 µM
- TGI [12]: > 100 µM
- TGI [13]: > 100 µM
- TGI [14]: > 100 µM
- TGI [15]: > 100 µM
- TGI [16]: > 100 µM
- TGI [17]: > 100 µM
- TGI [18]: > 100 µM
- TGI [19]: > 100 µM
- TGI [20]: > 100 µM
- TGI [21]: > 100 µM
- TGI [22]: > 100 µM
- TGI [23]: > 100 µM
- TGI [24]: > 100 µM
- TGI [25]: > 100 µM
- TGI [26]: > 100 µM
- TGI [27]: > 100 µM
- TGI [28]: > 100 µM
- TGI [29]: > 100 µM
- TGI [30]: > 100 µM
- TGI [31]: > 100 µM
- TGI [32]: > 100 µM
- TGI [33]: > 100 µM
- TGI [34]: > 100 µM
- TGI [35]: > 100 µM
- TGI [36]: > 100 µM
- TGI [37]: > 100 µM
- TGI [38]: > 100 µM
- TGI [39]: > 100 µM
- TGI [40]: > 100 µM
- TGI [41]: > 100 µM
- TGI [42]: > 100 µM
- TGI [43]: > 100 µM
- TGI [44]: > 100 µM
- TGI [45]: > 100 µM
- TGI [46]: > 100 µM
- TGI [47]: > 100 µM
- TGI [48]: > 100 µM
- TGI [49]: > 100 µM
- TGI [50]: > 100 µM
- TGI [51]: > 100 µM
- TGI [52]: > 100 µM
- TGI [53]: > 100 µM
- TGI [54]: > 100 µM
- TGI [55]: > 100 µM
- TGI [56]: > 100 µM

SMILES: Cn1ncc2[nH]cnc2c1=S
- TGI [1]: > 100 µM
- TGI [2]: > 100 µM
- TGI [3]: > 100 µM
- TGI [4]: > 100 µM
- TGI [6]: > 100 µM
- TGI [7]: > 100 µM
- TGI [8]: > 100 µM
- TGI [9]: > 100 µM
- TGI [10]: > 100 µM
- TGI [11]: > 100 µM
- TGI [12]: > 100 µM
- TGI [14]: > 100 µM
- TGI [15]: > 100 µM
- TGI [16]: > 100 µM
- TGI [17]: > 100 µM
- TGI [18]: > 100 µM
- TGI [19]: > 100 µM
- TGI [20]: > 100 µM
- TGI [22]: > 100 µM
- TGI [23]: > 100 µM
- TGI [24]: > 100 µM
- TGI [25]: > 100 µM
- TGI [26]: > 100 µM
- TGI [27]: > 100 µM
- TGI [28]: > 100 µM
- TGI [29]: > 100 µM
- TGI [31]: > 100 µM
- TGI [32]: > 100 µM
- TGI [33]: 66.8 µM
- TGI [34]: 24.6 µM
- TGI [35]: > 100 µM
- TGI [36]: > 100 µM
- TGI [38]: > 100 µM
- TGI [39]: > 100 µM
- TGI [40]: > 100 µM
- TGI [41]: > 100 µM
- TGI [42]: > 100 µM
- TGI [43]: > 100 µM
- TGI [44]: > 100 µM
- TGI [45]: > 100 µM
- TGI [46]: > 100 µM
- TGI [47]: > 100 µM
- TGI [48]: > 100 µM
- TGI [49]: > 100 µM
- TGI [57]: > 100 µM
- TGI [50]: > 100 µM
- TGI [51]: > 100 µM
- TGI [52]: > 100 µM
- TGI [53]: > 100 µM
- TGI [54]: > 100 µM
- TGI [55]: > 100 µM
- TGI [56]: > 100 µM

SMILES: CSC1=NN(c2ccccc2)C(=O)C1=C(SC)SC
- TGI [1]: 87.6 µM
- TGI [2]: 70.3 µM
- TGI [3]: 76 µM
- TGI [4]: 45.9 µM
- TGI [5]: 25.5 µM
- TGI [6]: 82 µM
- TGI [7]: 70.3 µM
- TGI [8]: 97.8 µM
- TGI [9]: > 100 µM
- TGI [11]: 26 µM
- TGI [12]: > 100 µM
- TGI [13]: 91.7 µM
- TGI [14]: 43.5 µM
- TGI [15]: > 100 µM
- TGI [16]: > 100 µM
- TGI [17]: > 100 µM
- TGI [18]: 53.8 µM
- TGI [19]: > 100 µM
- TGI [20]: 47 µM
- TGI [21]: 66.1 µM
- TGI [22]: > 100 µM
- TGI [23]: > 100 µM
- TGI [24]: 64.6 µM
- TGI [58]: 39.6 µM
- TGI [25]: 94.3 µM
- TGI [26]: 62.7 µM
- TGI [27]: > 100 µM
- TGI [29]: > 100 µM
- TGI [30]: > 100 µM
- TGI [31]: 37 µM
- TGI [32]: 66.7 µM
- TGI [33]: > 100 µM
- TGI [34]: 51.8 µM
- TGI [35]: 35.4 µM
- TGI [36]: > 100 µM
- TGI [37]: > 100 µM
- TGI [38]: > 100 µM
- TGI [39]: 29.8 µM
- TGI [40]: 49.6 µM
- TGI [41]: 49.2 µM
- TGI [42]: > 100 µM
- TGI [43]: 73.4 µM
- TGI [44]: 39.9 µM
- TGI [45]: 53 µM
- TGI [46]: 46.7 µM
- TGI [47]: 83.7 µM
- TGI [48]: 41.4 µM
- TGI [49]: 43.9 µM
- TGI [50]: 74.6 µM
- TGI [51]: > 100 µM
- TGI [52]: > 100 µM
- TGI [53]: 65.9 µM
- TGI [54]: 55.7 µM
- TGI [56]: 47 µM
